In patent publication US9624549B2, “Stable gene targets in breast cancer and use thereof for optimizing therapy” (Cytognomix Inc., priority 2012, dated 2017):
Several values for one entry are separate records, joined by “and”; a condition that tells them apart may be missing. Equal values may be shown once. Read-outs that look alike come from different tables or passages of the source.

Experiments:
[1] = test system: MDAMB231; details: MDA231 (MDAMB231) cell line; replicate assays; cited from earlier work
[2] = test system: BT549; details: BT549 cell line; replicate assays; cited from earlier work
[3] = test system: T47D; details: T47D cell line; replicate assays; cited from earlier work
[4] = test system: MCF7; details: MCF7 cell line; replicate assays; cited from earlier work
[5] = test system: HS578T; details: HS578T cell line; replicate assays; cited from earlier work
[6] = test system: triple-negative breast cancer cell lines; details: triple-negative breast cancer cell lines (Liu et al. 2009); cited from earlier work
[7] = test system: HS578T; experiment: GI50 of breast cancer cell lines from NCI60 panel; type: cell-based; details: Homo sapiens, Hs-578T, mean of replicate GI50s, read-out: mean concentration (GI50) (converted)
Description: Certain anti-breast cancer therapies have been evaluated in the NCl-60 panel of cancer cell lines (Staunton J E, Slonim D K, Coller H A, Tamayo P, Angelo M J, Park J, Scherf U, Lee J K, Reinhold W O, Weinstein J N and others. 2001. Chemosensitivity prediction by transcriptional profiling. Proc Natl Acad Sci USA 98:10787-92.) including four cell lines we studied (MCF7, MDA-MB-231, HS578T, and T-47D). We have confirmed stable copy numbers for a representative group of target genomic intervals in 5 breast cancer lines (MCF7, MDAMB231, HS578T, T47D and SKBR-3). Despite the lack of stratification in pathology in the tumors studied, genomic architectures and functions were preserved in these regions. Paclitaxel and its derivatives, estrone, estradiol, and topotecan are common therapies that act on multiple products encoded by dually stable genes which may, in part, explain why they are effective for inhibiting growth of these cell lines and for treating breast cancer.

SMILES | GI50 [1] | GI50 [2] | GI50 [3] | GI50 [4] | GI50 [5] | anti-cancer activity [6] | GI50 [7] [µM]
Nc1ccn([C@@H]2O[C@H](CO)[C@@H](O)C2(F)F)c(=O)n1 [Gm, gemcitabane] | 5.86 −log10M and 6.28 −log10M and 6.03 −log10M | 7.80 −log10M and 8.00 −log10M | 6.26 −log10M and 8.00 −log10M and 5.86 −log10M | 7.99 −log10M and 8.00 −log10M | 5.65 −log10M and 4.00 −log10M |  | 
S=c1nc[nH]c2nc[nH]c12 [Me, mercaptopurine] | 4.61 −log10M and 5.14 −log10M | 4.52 −log10M and 3.74 −log10M and 4.00 −log10M | 5.45 −log10M and 5.62 −log10M | 5.78 −log10M and 5.74 −log10M and 5.82 −log10M | 4.85 −log10M and 4.84 −log10M |  | 
CN(C)C(=N)N=C(N)N [Metformin] |  |  |  |  |  | has anti-cancer activity | 
CC(=O)O[C@H]1C(=O)[C@@]2(C)[C@H]([C@H](OC(=O)c3ccccc3)[C@]3(O)C[C@H](OC(=O)[C@H](O)[C@@H](NC(=O)c4ccccc4)c4ccccc4)C(C)=C1C3(C)C)[C@]1(OC(C)=O)CO[C@@H]1C[C@@H]2O [Pa, Paclitaxel] | 8.56 −log10M and 7.27 −log10M and 7.91 −log10M | 9.30 −log10M and 7.60 −log10M and 8.45 −log10M | 6.56 −log10M and 7.27 −log10M and 6.91 −log10M | 9.06 −log10M and 8.01 −log10M and 8.53 −log10M | 8.81 −log10M and 8.22 −log10M and 8.52 −log10M |  | 0.00316
CC[C@@]1(O)C(=O)OCc2c1cc1n(c2=O)Cc2cc3c(CN(C)C)c(O)ccc3nc2-1 [To, topotecan] | 6.41 −log10M and 5.67 −log10M and 5.65 −log10M | 7.36 −log10M and 7.05 −log10M and 7.32 −log10M | 8.24 −log10M and 7.82 −log10M and 7.73 −log10M | 8.09 −log10M and 7.79 −log10M and 7.83 −log10M | 5.96 −log10M and 5.14 −log10M and 5.73 −log10M |  | 28.2
